Source: ChEMBL document CHEMBL2169791, “Strategies for the design of HIV-1 non-nucleoside reverse transcriptase inhibitors: lessons from the development of seven representative paradigms” (J Med Chem, 2012)
Converted amounts (≈) assume the structure as drawn. Each block holds one compound with its values, some of them ahead of it.

Tests used:
[1] = test system: Human immunodeficiency virus 1; test: Antiviral activity against HIV1 infected in human assessed as viral copies at 25 to 150 mg; type: functional
[2] = test system: Human immunodeficiency virus 1; test: Antiviral activity against HIV1 infected in human assessed as log reduction in viral load at 25 to 150 mg administered QD for 7 days measured on day 8 relative to placebo-control; type: functional
[3] = Half life in HIV-infected patient plasma; type: ADME, organism-based; conditions: human
[4] = Half life in HIV1-infected patient; type: ADME, organism-based; conditions: human, in vivo
[5] = test system: Human immunodeficiency virus 1; test: Antiviral activity against HIV1 3B infected in MT4 cells assessed as inhibition of virus-induced cytopathic effect after 5 days by MTT assay; type: functional, organism-based; conditions: Human immunodeficiency virus 1, 3B, MT4, 120 h
[6] = Selectivity index, ratio of cytotoxic concentration for human MT4 cells to IC50 for HIV1 3B; type: toxicity, cell-based; conditions: read-out: Selectivity Index
[7] = test system: Human immunodeficiency virus 1; test: Antiviral activity against HIV1 3B infected in MT4 cells; type: functional, organism-based; conditions: Human immunodeficiency virus 1, 3B
[8] = Half life in plasma; type: ADME, cell-free
[9] = test system: Human immunodeficiency virus 1; test: Antiviral activity against HIV1 harboring reverse transcriptase K103N/Y181C mutant; type: functional, organism-based
[10] = test system: Human immunodeficiency virus 1; test: Antiviral activity against HIV1 harboring reverse transcriptase L100I/K103N mutant; type: functional, organism-based
[11] = test system: Human immunodeficiency virus 1; test: Antiviral activity against wild type HIV1; type: functional, organism-based
[12] = test system: Human immunodeficiency virus 1; test: Antiviral activity against HIV1 infected in MT4 cells; type: functional, organism-based; conditions: Human immunodeficiency virus 1, MT4
[13] = test system: Human immunodeficiency virus 1; test: Ratio of nevirapine EC50 to compound EC50 for HIV1; type: functional
[14] = test system: Human immunodeficiency virus 1; test: Antiviral activity against HIV1 harboring reverse transcriptase Y188L mutant; type: functional, organism-based
[15] = test system: Human immunodeficiency virus 1; test: Antiviral activity against HIV1 harboring reverse transcriptase Y181C mutant; type: functional, organism-based
[16] = test system: Human immunodeficiency virus 1; test: Antiviral activity against HIV1 harboring reverse transcriptase K103N mutant; type: functional, organism-based
[17] = test system: Human immunodeficiency virus 1; test: Antiviral activity against HIV1 harboring reverse transcriptase L100I mutant; type: functional, organism-based
[18] = test system: Human immunodeficiency virus 1; test: Antiviral activity against HIV1 infected in human assessed as log reduction in viral load at 750 mg administered QD for 7 days measured on day 8 relative to placebo-control; type: functional
[19] = test system: Human immunodeficiency virus 1; test: Antiviral activity against HIV1 infected in human assessed as log reduction in viral load at 500 mg administered QD for 7 days measured on day 8 relative to placebo-control; type: functional
[20] = test system: Human immunodeficiency virus 1; test: Antiviral activity against HIV1 infected in human assessed as log reduction in viral load at 800 mg administered QD for 7 days measured on day 8 relative to placebo-control; type: functional

SMILES: O=C(CSc1nnc(Br)n1-c1ccc(C2CC2)c2ccccc12)Nc1ccc(C(=O)[O-])cc1Cl.[K+]
half-life [4]: 11 h

SMILES: CC(=O)c1ccc(C)cc1NC(C(N)=O)c1c(Cl)cccc1Cl (centres undefined) [LOVIRIDE]
IC50 [5]: 0.013 µM

SMILES: Cc1cc(C#N)cc(C)c1Oc1nc(Nc2ccc(C#N)cc2)nc(N)c1Br [ETRAVIRINE]
half-life [8]: 30 h
IC50 [9]: 0.0043 µM
IC50 [10]: 0.019 µM
IC50 [11]: < 0.01 µM

SMILES: Cc1cc(C#N)cc(C)c1Oc1ccnc(Nc2ccc(C#N)cc2)n1
IC50 [9]: 0.094 µM
IC50 [10]: 0.798 µM
IC50 [14]: 0.019 µM
IC50 [15]: 0.037 µM
IC50 [16]: 0.0027 µM
IC50 [17]: 0.073 µM
IC50 [11]: 0.0011 µM

SMILES: Cc1cc(C#N)cc(C)c1Oc1nc(Nc2ccc(C#N)cc2)ncc1Br
IC50 [9]: 0.025 µM
IC50 [10]: 0.049 µM
IC50 [14]: 0.0059 µM
IC50 [15]: 0.022 µM
IC50 [16]: 0.0014 µM
IC50 [17]: 0.0066 µM
IC50 [11]: 0.0014 µM

SMILES: CCc1nn(CCO)c(CC)c1Oc1cc(C#N)cc(C#N)c1 [LERSIVIRINE]
FC [18]: 2
FC [19]: 1.9

SMILES: CO[P@](=O)(c1cc(C)cc(/C=C/C#N)c1)c1c(C(N)=O)[nH]c2ccc(Cl)cc12 [FOSDEVIRINE]
FC [20]: 2.1

Now from value to compound, other results behind:

half-life [3]: 48 h
SMILES: Cc1cc(/C=C/C#N)cc(C)c1Nc1ccnc(Nc2ccc(C#N)cc2)n1 [RILPIVIRINE]
Activity [1]: <50 mL⁻¹
FC [2]: 1.199

IC50 [7]: 0.0015 µM
SMILES: Cc1cn([C@H]2C[C@H](N=[N+]=[N-])[C@@H](CO)O2)c(=O)[nH]c1=O [ZIDOVUDINE]
selectivity ratio [6]: 6200

IC50 [12]: 0.0005 µM
SMILES: Cc1cc(S(N)(=O)=O)ccc1NC(=O)COc1ccc(Cl)cc1C(=O)c1cc(F)cc(C(F)(F)F)c1

EC50 [11]: 0.00026 µg/mL (≈ 0.589 nM)
SMILES: CCN1c2ncc(CCOc3cc[n+]([O-])c4ccccc34)cc2C(=O)N(C)c2cccnc21 [BILR 355]
Ratio EC50 [13]: >10

IC50 [7]: 0.028 µM
SMILES: CC(C)=CCN1Cc2cccc3[nH]c(=S)n(c23)C[C@@H]1C
selectivity ratio [6]: 31100

IC50 [12]: 10 µg/mL
SMILES: CCN(CC)CCOc1ccc(NC(=O)COc2ccccc2C(=O)c2ccc(OC)cc2)cc1
